Data taken from patent US11053204B2, “Pyrimidinyloxy benzene derivatives as herbicides” (FMC Corporation, priority 2015, dated 2021).

Experiments:
Type in all cases: in vivo
[1] = tested on: Italian ryegrass (Lolium multiflorum); test: Test A preemergence, visual injury rating
How it was run: (§1)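 Visual injury scored 0–100 (100 = complete control) against untreated controls about 10 days after treatment in a greenhouse. Test chemicals, formulated with surfactant in non-phytotoxic solvent, were sprayed on soil preemergence or on 2-10 cm, one- to two-leaf plants postemergence.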

[2] = tested on: barnyardgrass (Echinochloa crus-galli); test: Test A preemergence, visual injury rating; settings: for Plant response rating, Barnyardgrass: 31 g ai/ha, 0 to 100 scale, 0 no effect, 100 complete control; for Barnyardgrass plant response rating: 125 g ai/ha, 0 to 100 scale (0 no effect, 100 complete control)
How it was run: as §1

[3] = tested on: giant foxtail (Setaria faberii); test: Test A preemergence, visual injury rating
How it was run: as §1

kochia (Kochia scoparia) [4] = test: Test A preemergence, visual injury rating
How it was run: as §1

[5] = tested on: pigweed (Amaranthus retroflexus); test: Test A preemergence, visual injury rating
How it was run: as §1

[6] = tested on: ragweed (common ragweed, Ambrosia elatior); test: Test A preemergence, visual injury rating
How it was run: as §1

[7] = tested on: Italian ryegrass (Lolium multiflorum); test: Test A postemergence, visual injury rating; settings: 0 is no effect, 100 is complete control; for Ryegrass, Italian plant response rating: 0 to 100 scale, approximately 10 days
How it was run: as §1

[8] = tested on: barnyardgrass (Echinochloa crus-galli); test: Test A postemergence, visual injury rating; settings: 0 is no effect, 100 is complete control; for Barnyardgrass plant response rating: 0 to 100 scale, approximately 10 days
How it was run: as §1

[9] = tested on: blackgrass (Alopecurus myosuroides); test: Test A postemergence, visual injury rating; settings: 0 is no effect, 100 is complete control; for Blackgrass plant response rating: 0 to 100 scale, approximately 10 days
How it was run: as §1

corn (Zea mays) = test: Test A postemergence, visual injury rating; settings: 0 is no effect, 100 is complete control; for Corn plant response rating: 0 to 100 scale, approximately 10 days
How it was run: as §1

[10] = tested on: galium (catchweed bedstraw, Galium aparine); test: Test A postemergence, visual injury rating; settings: 0 is no effect, 100 is complete control; for Galium plant response rating: 0 to 100 scale, approximately 10 days
How it was run: as §1

[11] = tested on: giant foxtail (Setaria faberii); test: Test A postemergence, visual injury rating; settings: 0 is no effect, 100 is complete control; for Foxtail, Giant plant response rating: 0 to 100 scale, approximately 10 days
How it was run: as §1

kochia (Kochia scoparia) [12] = test: Test A postemergence, visual injury rating; settings: 0 is no effect, 100 is complete control; for Kochia plant response rating: 0 to 100 scale, approximately 10 days
How it was run: as §1

[13] = tested on: pigweed (Amaranthus retroflexus); test: Test A postemergence, visual injury rating; settings: 0 is no effect, 100 is complete control; for Pigweed plant response rating: 0 to 100 scale, approximately 10 days
How it was run: as §1

[14] = tested on: ragweed (common ragweed, Ambrosia elatior); test: Test A postemergence, visual injury rating; settings: 0 is no effect, 100 is complete control; for Ragweed plant response rating: 0 to 100 scale, approximately 10 days
How it was run: as §1

[15] = tested on: wheat (Triticum aestivum); test: Test A postemergence, visual injury rating; settings: 0 is no effect, 100 is complete control; for Wheat plant response rating: 0 to 100 scale, approximately 10 days
How it was run: as §1

[16] = tested on: barnyardgrass (Echinochloa crus-galli); test: Test B flooded paddy test, plant response rating; settings: 250 g ai/ha; Flood; scale of 0 to 100 where 0 is no effect and 100 is complete control; 13 to 15 days
How it was run: (§2)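 Under a constant 3 cm flood, test compounds went directly into the paddy water. Following 13 to 15 days of greenhouse growth, treated species and controls were compared by eye.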

[17] = tested on: ducksalad (Heteranthera limosa); test: Test B flooded paddy test, plant response rating; settings: 250 g ai/ha; Flood; scale of 0 to 100 where 0 is no effect and 100 is complete control; 13 to 15 days
How it was run: as §2

rice (Oryza sativa) = test: Test B flooded paddy test, plant response rating; settings: 250 g ai/ha; Flood; scale of 0 to 100 where 0 is no effect and 100 is complete control; 13 to 15 days
How it was run: as §2

[18] = tested on: sedge, umbrella (small-flower umbrella sedge, Cyperus difformis); test: Test B flooded paddy test, plant response rating; settings: 250 g ai/ha; Flood; scale of 0 to 100 where 0 is no effect and 100 is complete control; 13 to 15 days
How it was run: as §2

[19] = 31 g ai/ha, 0 to 100 scale, 0 no effect, 100 complete control
[20] = 125 g ai/ha, 0 to 100 scale (0 no effect, 100 complete control)

Row | SMILES | Plant response rating, Ryegrass, Italian [1, 19] | Plant response rating, Barnyardgrass [2] | Barnyardgrass plant response rating [2] | Plant response rating, Foxtail, Giant [3, 19] | Plant response rating, Kochia (kochia (Kochia scoparia) [4]; [19]) | Plant response rating, Pigweed [5, 19] | Plant response rating, Ragweed [6, 19] | Ryegrass, Italian plant response rating ([7]; 31 g ai/ha) | Barnyardgrass plant response rating ([8]; 31 g ai/ha) | Blackgrass plant response rating ([9]; 31 g ai/ha) | Corn plant response rating (corn (Zea mays); 31 g ai/ha) | Galium plant response rating ([10]; 31 g ai/ha) | Foxtail, Giant plant response rating ([11]; 31 g ai/ha) | Kochia plant response rating (kochia (Kochia scoparia) [12]; 31 g ai/ha) | Pigweed plant response rating ([13]; 31 g ai/ha) | Ragweed plant response rating ([14]; 31 g ai/ha) | Wheat plant response rating ([15]; 31 g ai/ha) | Plant response rating, Barnyardgrass [16] | Plant response rating, Ducksalad [17] | Plant response rating, Rice (rice (Oryza sativa)) | other results
1 | CCCCC(=O)c1c(C#N)cccc1Oc1ncc(Cl)cn1 [Compound 68] | 0 | 10 | 70 | 10 | 0 | 20 | 0 | 0 | 10 | 10 | 10 | 20 | 20 | 20 | 20 | 0 | 0 | 0 | 0 | 0 | Ryegrass, Italian plant response rating [1, 20]: 0; Foxtail, Giant plant response rating [3, 20]: 80; Kochia plant response rating (kochia (Kochia scoparia) [4]; [20]): 30; Pigweed plant response rating [5, 20]: 80; Ragweed plant response rating [6, 20]: 0; Ryegrass, Italian plant response rating (0 to 100 scale) ([7]; 125 g ai/ha): 0; Barnyardgrass plant response rating (0 to 100 scale) ([8]; 125 g ai/ha): 30; Blackgrass plant response rating (0 to 100 scale) ([9]; 125 g ai/ha): 30; Corn plant response rating (0 to 100 scale) (corn (Zea mays); 125 g ai/ha): 20; Galium plant response rating (0 to 100 scale) ([10]; 125 g ai/ha): 60; Foxtail, Giant plant response rating (0 to 100 scale) ([11]; 125 g ai/ha): 30; Kochia plant response rating (0 to 100 scale) (kochia (Kochia scoparia) [12]; 125 g ai/ha): 40; Pigweed plant response rating (0 to 100 scale) ([13]; 125 g ai/ha): 90; Ragweed plant response rating (0 to 100 scale) ([14]; 125 g ai/ha): 20; Wheat plant response rating (0 to 100 scale) ([15]; 125 g ai/ha): 0; Plant response rating, Sedge, Umbrella [18]: 0
2 | CCCC(=O)c1c(C#N)cccc1Oc1ncc(Cl)cn1 [Compound 67] | 0 | 0 | 0 | 0 | 0 | 0 | 0 | 0 | 0 | 0 | 0 | 0 | 0 | 0 | 0 | 0 | 0 | 0 | 0 | 0 | Ryegrass, Italian plant response rating [1, 20]: 0; Foxtail, Giant plant response rating [3, 20]: 0; Kochia plant response rating (kochia (Kochia scoparia) [4]; [20]): 0; Pigweed plant response rating [5, 20]: 0; Ragweed plant response rating [6, 20]: 0; Ryegrass, Italian plant response rating (0 to 100 scale) ([7]; 125 g ai/ha): 0; Barnyardgrass plant response rating (0 to 100 scale) ([8]; 125 g ai/ha): 0; Blackgrass plant response rating (0 to 100 scale) ([9]; 125 g ai/ha): 0; Corn plant response rating (0 to 100 scale) (corn (Zea mays); 125 g ai/ha): 0; Galium plant response rating (0 to 100 scale) ([10]; 125 g ai/ha): 0; Foxtail, Giant plant response rating (0 to 100 scale) ([11]; 125 g ai/ha): 0; Kochia plant response rating (0 to 100 scale) (kochia (Kochia scoparia) [12]; 125 g ai/ha): 0; Pigweed plant response rating (0 to 100 scale) ([13]; 125 g ai/ha): 0; Ragweed plant response rating (0 to 100 scale) ([14]; 125 g ai/ha): 0; Wheat plant response rating (0 to 100 scale) ([15]; 125 g ai/ha): 0; Plant response rating, Sedge, Umbrella [18]: 0
3 | CCON=C(C)c1c(Br)cccc1Oc1ncc(Cl)cn1 [Compound 95] | 0 | 10 | 70 | 0 | 0 | 0 | 0 | 0 | 0 | 0 | 0 | 10 | 0 | 0 | 10 | 0 | 0 | 0 | 30 | 0 | Ryegrass, Italian plant response rating [1, 20]: 0; Foxtail, Giant plant response rating [3, 20]: 50; Kochia plant response rating (kochia (Kochia scoparia) [4]; [20]): 0; Pigweed plant response rating [5, 20]: 40; Ragweed plant response rating [6, 20]: 0; Ryegrass, Italian plant response rating ([7]; 125 g ai/ha): 0; Barnyardgrass plant response rating ([8]; 125 g ai/ha): 30; Blackgrass plant response rating ([9]; 125 g ai/ha): 10; Corn plant response rating (corn (Zea mays); 125 g ai/ha): 10; Galium plant response rating ([10]; 125 g ai/ha): 40; Foxtail, Giant plant response rating ([11]; 125 g ai/ha): 60; Kochia plant response rating (kochia (Kochia scoparia) [12]; 125 g ai/ha): 0; Pigweed plant response rating ([13]; 125 g ai/ha): 20; Ragweed plant response rating ([14]; 125 g ai/ha): 0; Wheat plant response rating ([15]; 125 g ai/ha): 0; Plant response rating, Sedge, Umbrella [18]: 0
4 | CC(=NOC(C)C)c1c(Cl)cccc1Oc1ncc(Cl)cn1 [Compound 104] | 0 | 0 | 30 | 0 | 0 | 0 | 0 | 0 | 0 | 0 | 0 | 10 | 0 | 0 | 10 | 0 | 0 | 0 | 75 | 0 | Plant response rating, Ryegrass, Italian [1, 20]: 0; Plant response rating, Foxtail, Giant [3, 20]: 40; Plant response rating, Kochia (kochia (Kochia scoparia) [4]; [20]): 0; Plant response rating, Pigweed [5, 20]: 40; Plant response rating, Ragweed [6, 20]: 0; Ryegrass, Italian plant response rating ([7]; 125 g ai/ha): 0; Barnyardgrass plant response rating ([8]; 125 g ai/ha): 0; Blackgrass plant response rating ([9]; 125 g ai/ha): 20; Corn plant response rating (corn (Zea mays); 125 g ai/ha): 10; Galium plant response rating ([10]; 125 g ai/ha): 30; Foxtail, Giant plant response rating ([11]; 125 g ai/ha): 10; Kochia plant response rating (kochia (Kochia scoparia) [12]; 125 g ai/ha): 10; Pigweed plant response rating ([13]; 125 g ai/ha): 40; Ragweed plant response rating ([14]; 125 g ai/ha): 0; Wheat plant response rating ([15]; 125 g ai/ha): 0; Plant response rating, Sedge, Umbrella [18]: 75
5 | CC(=NOC(C)C)c1c(C#N)cccc1Oc1ncc(Cl)cn1 [Compound 69] | 0 | 70 | 90 | 40 | 0 | 40 | 0 | 0 | 10 | 10 | 0 | 40 | 20 | 20 | 40 | 0 | 0 | 0 | 75 | 20 | Ryegrass, Italian plant response rating [1, 20]: 0; Foxtail, Giant plant response rating [3, 20]: 70; Kochia plant response rating (kochia (Kochia scoparia) [4]; [20]): 30; Pigweed plant response rating [5, 20]: 100; Ragweed plant response rating [6, 20]: 0; Ryegrass, Italian plant response rating ([7]; 125 g ai/ha): 0; Barnyardgrass plant response rating (0 to 100 scale) ([8]; 125 g ai/ha): 70; Blackgrass plant response rating (0 to 100 scale) ([9]; 125 g ai/ha): 30; Corn plant response rating (0 to 100 scale) (corn (Zea mays); 125 g ai/ha): 20; Galium plant response rating (0 to 100 scale) ([10]; 125 g ai/ha): 60; Foxtail, Giant plant response rating (0 to 100 scale) ([11]; 125 g ai/ha): 30; Kochia plant response rating (kochia (Kochia scoparia) [12]; 125 g ai/ha): 40; Pigweed plant response rating ([13]; 125 g ai/ha): 80; Ragweed plant response rating ([14]; 125 g ai/ha): 0; Wheat plant response rating ([15]; 125 g ai/ha): 0; Plant response rating, Sedge, Umbrella [18]: 80
